Experimental data as given in patent US9302999B2, “Substituted triazoles as herbicides” (E. I. DU PONT DE NEMOURS AND COMPANY, priority 2012, dated 2016).

What was measured:
Format in all cases: in vivo
[1] = system: johnsongrass (Sorghum halepense); test: Test C pre-/postemergence: johnsongrass
Summary of the method: (§1)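 Preemergence on seeds in loam/sand, postemergence on 2–18 cm (1–4-leaf) plants in peat-based medium; compounds in non-phytotoxic solvent with surfactant. After 13–15 days in greenhouse, visual rating versus controls, 0 (no effect) to 100 (complete control).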

[2] = system: lambsquarters (Chenopodium album); test: Test C pre-/postemergence: lambsquarters
Summary of the method: as §1

[3] = system: corn (Zea mays); test: Test A pre-/postemergence: corn; conditions: for Corn plant response rating: Postemergence; for Plant response rating, Corn: Preemergence
Summary of the method: (§2)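 Injury was scored visually on a 0 (no effect) to 100 (complete control) scale versus untreated controls roughly ten days after treatment in the greenhouse. Compounds, formulated in surfactant-containing non-phytotoxic solvent, went on as soil-directed preemergence spray or postemergence to one- to two-leaf plants 2–10 cm tall.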

[4] = system: galium (catchweed bedstraw, Galium aparine); test: Test C pre-/postemergence: galium
Summary of the method: as §1

[5] = system: kochia (Kochia scoparia); test: Test C pre-/postemergence: kochia
Summary of the method: as §1

[6] = system: rice (Oryza sativa); test: Test B flooded paddy: rice; conditions: Flood; 250 g ai/ha; applied to paddy water at 2-leaf stage; visually evaluated after 13 to 15 days
Summary of the method: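 Plants were grown to the 2-leaf stage, then pots were flooded to 3 cm above the soil and compounds were applied directly into the paddy water. Water depth was held for the whole test; after 13 to 15 days in a greenhouse, injury was visually rated against untreated controls (0 = no effect, 100 = complete control).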

[7] = system: barnyardgrass (Echinochloa crus-galli); test: Test A pre-/postemergence: barnyardgrass; conditions: for Barnyardgrass plant response rating: Postemergence; for Plant response rating, Barnyardgrass: Preemergence
Summary of the method: as §2

[8] = system: velvetleaf (Abutilon theophrasti); test: Test C pre-/postemergence: velvetleaf
Summary of the method: as §1

[9] = system: ragweed (common ragweed, Ambrosia elation); test: Test C pre-/postemergence: ragweed
Summary of the method: as §1

[10] = system: morningglory (Ipomoea spp.); test: Test A pre-/postemergence: morningglory; conditions: for Morningglory plant response rating: visual rating on 0 to 100 scale (0 no effect, 100 complete control), approximately ten days
Summary of the method: as §2

[11] = Postemergence, 31 g ai/ha, scale 0 to 100 (0 no effect, 100 complete control)
[12] = Postemergence, 62 g ai/ha, scale 0 to 100 (0 no effect, 100 complete control)
[13] = Postemergence, 125 g ai/ha, scale 0 to 100, 0 no effect, 100 complete control
[14] = Postemergence, 250 g ai/ha, scale 0 to 100
[15] = 125 g ai/ha, 0 to 100 scale, 0 is no effect, 100 is complete control
[16] = 500 g ai/ha, visual rating on 0 to 100 scale (0 no effect, 100 complete control), approximately ten days
[17] = 125 g ai/ha, 0 to 100 scale where 0 is no effect and 100 is complete control
[18] = 500 g ai/ha, 0 to 100 scale (0 no effect, 100 complete control)
[19] = Postemergence, 125 g ai/ha, 0 to 100 scale, 0 is no effect, 100 is complete control
[20] = Preemergence, 125 g ai/ha, 0 to 100 scale where 0 is no effect and 100 is complete control
[21] = Preemergence, 500 g ai/ha, 0 to 100 scale (0 no effect, 100 complete control)
[22] = Preemergence, 31 g ai/ha, scale of 0 to 100, 0 is no effect, 100 is complete control
[23] = Preemergence, 62 g ai/ha, scale of 0 to 100, 0 is no effect, 100 is complete control
[24] = Preemergence, 125 g ai/ha, scale 0 to 100, 0 no effect, 100 complete control
[25] = Preemergence, 250 g ai/ha, scale 0 to 100, 0 no effect, 100 complete control

## Cc1nn(-c2ccnc(Cl)c2)nc1Cc1ccnc(C(F)(F)F)c1 [Compound 141]
[1]; [11]
  Plant response rating, Johnsongrass: 10
[1]; [12]
  Plant response rating, Johnsongrass: 10
[1]; [13]
  Plant response rating, Johnsongrass: 15
[1]; [14]
  Plant response rating, Johnsongrass: 15
[2]; [11]
  Plant response rating, Lambsquarters: 98
[2]; [12]
  Plant response rating, Lambsquarters: 98
[2]; [13]
  Plant response rating, Lambsquarters: 98
[2]; [14]
  Plant response rating, Lambsquarters: 98
[3]; [15]
  Corn plant response rating: 30
[3]; [16]
  Corn plant response rating: 50
[3]; [17]
  Plant response rating, Corn: 0
[3]; [18]
  Plant response rating, Corn: 30
[4]; [11]
  Plant response rating, Galium: 85
[4]; [12]
  Plant response rating, Galium: 85
[4]; [13]
  Plant response rating, Galium: 90
[4]; [14]
  Plant response rating, Galium: 90
[5]; [11]
  Plant response rating, Kochia: 85
[5]; [12]
  Plant response rating, Kochia: 90
[5]; [13]
  Plant response rating, Kochia: 90
[5]; [14]
  Plant response rating, Kochia: 90
[6]
  Plant response rating, Rice (0 to 100 scale, 0 is no effect, 100 is complete control): 35
[7]; [15]
  Barnyardgrass plant response rating: 80
[7]; [16]
  Barnyardgrass plant response rating: 90
[7]; [17]
  Plant response rating, Barnyardgrass: 40
[7]; [18]
  Plant response rating, Barnyardgrass: 100
[8]; [11]
  Plant response rating, Velvetleaf: 40
[8]; [12]
  Plant response rating, Velvetleaf: 55
[8]; [13]
  Plant response rating, Velvetleaf: 60
[8]; [14]
  Plant response rating, Velvetleaf: 60
[9]; [11]
  Plant response rating, Ragweed: 60
[9]; [12]
  Plant response rating, Ragweed: 70
[9]; [14]
  Plant response rating, Ragweed: 85
[10]; [19]
  Plant response rating, Morningglory: 80
[10]; Postemergence, 500 g ai/ha
  Morningglory plant response rating: 90
[10]; [20]
  Plant response rating, Morningglory: 30
[10]; [21]
  Plant response rating, Morningglory: 60

## Cc1nn(-c2ccc(F)cc2F)nc1Oc1ccnc(C(F)(F)F)c1 [Compound 146]
[1]; [22]
  Plant response rating, Johnsongrass: 5
[1]; [23]
  Plant response rating, Johnsongrass: 75
[1]; [24]
  Plant response rating, Johnsongrass: 98
[1]; [25]
  Plant response rating, Johnsongrass: 100
[2]; [22]
  Plant response rating, Lambsquarters: 10
[2]; [23]
  Plant response rating, Lambsquarters: 40
[2]; [24]
  Plant response rating, Lambsquarters: 85
[2]; [25]
  Plant response rating, Lambsquarters: 95
[3]; [15]
  Corn plant response rating: 20
[3]; [16]
  Corn plant response rating: 80
[3]; [17]
  Plant response rating, Corn: 0
[3]; [18]
  Plant response rating, Corn: 10
[4]; [22]
  Plant response rating, Galium: 95
[4]; [23]
  Plant response rating, Galium: 95
[4]; [24]
  Plant response rating, Galium: 95
[4]; [25]
  Plant response rating, Galium: 100
[5]; [22]
  Plant response rating, Kochia: 30
[5]; [23]
  Plant response rating, Kochia: 55
[5]; [24]
  Plant response rating, Kochia: 85
[5]; [25]
  Plant response rating, Kochia: 85
[6]
  Plant response rating, Rice (0 to 100 scale, 0 is no effect, 100 is complete control): 35
[7]; [15]
  Barnyardgrass plant response rating: 30
[7]; [16]
  Barnyardgrass plant response rating: 90
[7]; [17]
  Plant response rating, Barnyardgrass: 90
[7]; [18]
  Plant response rating, Barnyardgrass: 100
[8]; [22]
  Plant response rating, Velvetleaf: 0
[8]; [23]
  Plant response rating, Velvetleaf: 5
[8]; [24]
  Plant response rating, Velvetleaf: 15
[8]; [25]
  Plant response rating, Velvetleaf: 60
[9]; [22]
  Plant response rating, Ragweed: 0
[9]; [23]
  Plant response rating, Ragweed: 0
[9]; [24]
  Plant response rating, Ragweed: 45
[9]; [25]
  Plant response rating, Ragweed: 45
[10]; [19]
  Plant response rating, Morningglory: 90
[10]; Postemergence, 500 g ai/ha
  Morningglory plant response rating: 90
[10]; [20]
  Plant response rating, Morningglory: 10
[10]; [21]
  Plant response rating, Morningglory: 60
